One compound from US3968204A, “Antibiotic A-2315” (priority 1975, dated 1976) can be followed below.

One assay concerns Eubacterium aerofaciens. Kind of assay: MIC, anaerobic bacteria. Type of assay: cell-based. The note with it: Collinsella aerofaciens.
In assay [1] the test system is Klebsiella pneumoniae KA14. Kind of assay: Disc-plate MIC. The note with it: Disc-Plate Method.
The test system of a further assay is Proteus sp. Kind of assay: Disc-plate MIC. The note with it: Disc-Plate Method.
The next assay concerns Streptococcus pyogenes. Kind of assay: Disc-plate MIC. The note with it: Disc-Plate Method.
For assay [2], the system named is Staphylococcus aureus 3055. Kind of assay: Agar-dilution MIC. It is filed as cell-based. The note with it: Agar-Dilution Method, benzylpenicillin-susceptible.
The test system of assay [3] is Staphylococcus aureus 3055. As to the kind of experiment: Disc-plate MIC. The note with it: Disc-Plate Method; benzylpenicillin-susceptible.

Structures are written as SMILES. Converted amounts (≈) assume the structure as drawn.

`CC1=CC(O)CC(O)Cc2nc(co2)C(=O)NC(C)C(=O)OC(C(C)C)C(C)C=CC(=O)NCC=C1` (stereo not drawn) [Factor A]: the MIC was determined as 16 µg/mL (≈ 31.8 µM) against Eubacterium aerofaciens; 50.0 μg/disc in assay [1]; 100. μg/disc against Proteus sp.; 0.012 μg/disc in the assay on Streptococcus pyogenes; 6.25 µg/mL (≈ 12.4 µM) in assay [2]; 0.025 μg/disc in assay [3].
